# From patent publication US8022051B2, “Composition for protection and improvement of skin, or reinforcing skin barrier function comprising phosphatidylserine” (Doosan Corporation, priority 2004, dated 2011)
# Experiments:
# [1] = system: skin of back region of CD-1 mouse; assay: Skin differentiation promotion in the mouse (involucrin and loricrin expression); assay type: in vivo; conditions: 0.5% aqueous solution, 50 μl two times per day for two weeks; compared to negative control group; FIG. 6
# Protocol: In order to examine a differentiation promotion of the skin in a mouse model, a following experiment was performed.
# First, 0.5% phosphatidylserine aqueous solution was applied to the skin of a back region of the mouse (CD-1 mouse, male&female, 6-8 weeks, Charles River, USA) in an amount of 50 μl two times per a day for two weeks. After that, the skin tissue of the treated region was subject to the biopsy and then the biopsy tissue was fixed to 4% formaldehyde and sliced. Then, antibodies for involucrin and loricrin were attached and an expression amount of the protein was examined.
# [2] = system: normal human keratinocytes; assay: Differentiation promoting effect in skin keratinocytes (western blot of involucrin and transglutaminase); assay type: cell-based; conditions: phosphatidylserine 20 and 40 μM, calcium 1.2 mM, clofibrate 200 and 400 μM; 24 hours; FIG. 5
# Protocol: In order to examine a differentiation promoting effect in the skin keratinocytes by the phosphatidylserine of the invention, a following experiment was performed. First, the normal human keratinocytes (a gift from Dong-guk University) cultured in the KSFM (Keratinocyte-SFM; Gibco BRL/Life Technologies, USA) were seeded to the 35 mm^2 cell culture dish in an amount of 1.5×10^5 cells/dish and then cultured for a day. Next day, the culture medium was removed and a new culture medium containing 20 and 40 μM of phosphatidylserine aqueous solution, 1.2 mM calcium aqueous solution and 200 and 400 μM of clofibrate (Sigma, USA) added thereto was added and cultured for 24 hours. Next day, in order to make sure of a differentiation of the keratinocyte, a morphology change of the cell was checked with a phase contrast microscope (Nikon, Japan) and a photograph was taken with a digital camera attached to the microscope. In addition, a western blot was performed to check the protein expression amount of involucrin and transglutaminase, which have been known as a differentiation-marker proteins of the keratinocyte peculiar to the keratin. 500 μl of a lysis buffer having 2% sodium dodecyl sulfate (SDS) added thereto wad added and the cells were collected with a cell scrapper, so that cell lysate only was obtained. […]
# [3] = target: T1, PPAR-γ (Homo sapiens, UniProt P37231); assay: PPAR-γ activation in HeLa cell line (luciferase reporter); assay type: cell-based; conditions: 10 and 50 μM; FIG. 7
# T1 construct: expressed in transfected cells; host or cells: HeLa (KCLB No. 10002)
# T1 sequence (P37231 1-505): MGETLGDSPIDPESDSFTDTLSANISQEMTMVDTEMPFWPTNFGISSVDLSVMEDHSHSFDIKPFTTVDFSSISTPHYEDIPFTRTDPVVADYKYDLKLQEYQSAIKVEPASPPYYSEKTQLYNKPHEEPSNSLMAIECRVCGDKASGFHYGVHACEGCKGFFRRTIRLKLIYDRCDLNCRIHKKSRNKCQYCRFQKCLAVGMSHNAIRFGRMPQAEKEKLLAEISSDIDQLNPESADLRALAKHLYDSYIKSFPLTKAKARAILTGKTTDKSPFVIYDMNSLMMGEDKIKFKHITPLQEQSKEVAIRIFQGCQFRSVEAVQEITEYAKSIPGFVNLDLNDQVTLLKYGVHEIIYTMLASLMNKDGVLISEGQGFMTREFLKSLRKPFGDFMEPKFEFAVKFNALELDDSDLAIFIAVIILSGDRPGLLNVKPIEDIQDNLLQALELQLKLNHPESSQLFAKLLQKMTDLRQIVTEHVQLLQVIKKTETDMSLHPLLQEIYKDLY
# Protocol: In order to examine a PPAR-a activating effect of the phosphatidylserine of the invention, a following experiment was performed. At this time, it was examined activities for the PPAR-a and PPAR-γ retained.
# First, a HeLa (Human epithelial carcinoma) (KCLB [Korean Cell Line Bank] No. 10002, Korea) was seeded to a 24-well plate in an amount of 2×10^4 cells/well and then cultured for a day. Next day, in order to perform a cell transfection, 200 ng of PPAR-a over-expression vector, 200 ng of PPRE (peculiar to PPAR-a)-luciferase reporter vector (Promega, USA), and 40 ng of renilla luciferase vector used as the control group in the cell (internal control, i.e., used to examine an transfection efficiency) were mixed in the OMEM (Gibco, USA) culture medium and subject to the transfection to the cell using the lipofectamin (Invitrogen, USA). After four hours, the culture medium was added to be 10% FBS and then cultured for one night. […] An activity of the luciferase was measured with a luminometer using a dual luciferase assay system (Promega, USA). Also in case of PPAR-γ, the same process was performed to measure the activity. At this time, in case of measuring the activity of PPAR-γ, 10 and 50 μM of phosphatidylserine and 50 μM of cyglitazone (Sigma, USA) as the positive control group were treated. […]
substance,measurement,setting,value
phosphatidylserine,expression amounts of involucrin and loricrin in skin,[1],remarkably increased
same,protein expression of involucrin and transglutaminase,[2],rapidly increased the expressions of the proteins
same,activity of PPAR-γ (luciferase),[3],had no influence
